According to ChEMBL document CHEMBL1132910, “SAR of 4-hydroxypiperidine and hydroxyalkyl substituted heterocycles as novel p38 map kinase inhibitors” (Bioorg Med Chem Lett, 2000):

Assays:
[1] = molecular target: T1, Prostaglandin G/H synthase 1 (Ovis aries, UniProt P05979); assay: Inhibition of Prostaglandin G/H synthase 1, COX-1
T1 sequence (P05979 whole entry): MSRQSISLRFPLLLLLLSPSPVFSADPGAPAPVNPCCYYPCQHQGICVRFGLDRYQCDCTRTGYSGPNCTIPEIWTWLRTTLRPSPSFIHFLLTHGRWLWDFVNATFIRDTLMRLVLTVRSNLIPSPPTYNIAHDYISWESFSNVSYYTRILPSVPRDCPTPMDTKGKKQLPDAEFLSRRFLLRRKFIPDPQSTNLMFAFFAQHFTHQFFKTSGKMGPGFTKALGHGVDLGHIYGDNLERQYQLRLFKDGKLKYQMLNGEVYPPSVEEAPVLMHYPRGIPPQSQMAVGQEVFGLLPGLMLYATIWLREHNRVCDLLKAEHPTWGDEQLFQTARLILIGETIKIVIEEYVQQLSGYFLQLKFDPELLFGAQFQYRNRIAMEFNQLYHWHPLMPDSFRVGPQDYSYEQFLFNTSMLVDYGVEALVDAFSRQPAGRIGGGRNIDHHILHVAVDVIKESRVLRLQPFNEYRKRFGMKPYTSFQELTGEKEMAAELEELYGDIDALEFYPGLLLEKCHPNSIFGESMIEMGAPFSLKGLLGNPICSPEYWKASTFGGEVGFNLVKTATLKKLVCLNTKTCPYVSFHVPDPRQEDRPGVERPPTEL

[2] = molecular target: Mitogen-activated protein kinase 14 (Mus musculus, UniProt P47811); assay: Inhibition of murine p38 alpha MAP kinase
Chain of Mitogen-activated protein kinase 14 (P47811 whole entry): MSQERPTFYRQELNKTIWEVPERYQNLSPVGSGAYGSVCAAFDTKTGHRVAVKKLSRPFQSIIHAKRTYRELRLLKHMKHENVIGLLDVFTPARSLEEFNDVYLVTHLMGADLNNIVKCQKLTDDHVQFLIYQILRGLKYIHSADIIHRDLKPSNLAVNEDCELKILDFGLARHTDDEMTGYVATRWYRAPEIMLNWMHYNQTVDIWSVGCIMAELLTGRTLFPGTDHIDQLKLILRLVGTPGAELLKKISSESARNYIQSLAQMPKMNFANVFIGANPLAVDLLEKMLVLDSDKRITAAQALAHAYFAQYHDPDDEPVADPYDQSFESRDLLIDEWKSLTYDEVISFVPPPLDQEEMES

[3] = molecular target: T2, Dual specificity mitogen-activated protein kinase kinase 6 (Homo sapiens, UniProt P52564); assay: Inhibition of MKK6b kinase
T2 sequence (P52564 whole entry): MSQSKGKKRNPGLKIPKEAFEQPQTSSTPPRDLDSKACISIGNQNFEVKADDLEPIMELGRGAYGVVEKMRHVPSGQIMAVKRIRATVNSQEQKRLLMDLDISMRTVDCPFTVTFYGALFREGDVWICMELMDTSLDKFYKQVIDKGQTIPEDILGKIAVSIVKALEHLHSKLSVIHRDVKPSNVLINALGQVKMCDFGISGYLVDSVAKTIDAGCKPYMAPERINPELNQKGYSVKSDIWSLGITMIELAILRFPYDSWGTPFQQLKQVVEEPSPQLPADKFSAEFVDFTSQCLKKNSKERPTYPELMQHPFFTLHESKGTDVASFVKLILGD

[4] = molecular target: Epidermal growth factor receptor (Homo sapiens, UniProt P00533); assay: Inhibition of EGFR kinase
Chain of Epidermal growth factor receptor (P00533 whole entry): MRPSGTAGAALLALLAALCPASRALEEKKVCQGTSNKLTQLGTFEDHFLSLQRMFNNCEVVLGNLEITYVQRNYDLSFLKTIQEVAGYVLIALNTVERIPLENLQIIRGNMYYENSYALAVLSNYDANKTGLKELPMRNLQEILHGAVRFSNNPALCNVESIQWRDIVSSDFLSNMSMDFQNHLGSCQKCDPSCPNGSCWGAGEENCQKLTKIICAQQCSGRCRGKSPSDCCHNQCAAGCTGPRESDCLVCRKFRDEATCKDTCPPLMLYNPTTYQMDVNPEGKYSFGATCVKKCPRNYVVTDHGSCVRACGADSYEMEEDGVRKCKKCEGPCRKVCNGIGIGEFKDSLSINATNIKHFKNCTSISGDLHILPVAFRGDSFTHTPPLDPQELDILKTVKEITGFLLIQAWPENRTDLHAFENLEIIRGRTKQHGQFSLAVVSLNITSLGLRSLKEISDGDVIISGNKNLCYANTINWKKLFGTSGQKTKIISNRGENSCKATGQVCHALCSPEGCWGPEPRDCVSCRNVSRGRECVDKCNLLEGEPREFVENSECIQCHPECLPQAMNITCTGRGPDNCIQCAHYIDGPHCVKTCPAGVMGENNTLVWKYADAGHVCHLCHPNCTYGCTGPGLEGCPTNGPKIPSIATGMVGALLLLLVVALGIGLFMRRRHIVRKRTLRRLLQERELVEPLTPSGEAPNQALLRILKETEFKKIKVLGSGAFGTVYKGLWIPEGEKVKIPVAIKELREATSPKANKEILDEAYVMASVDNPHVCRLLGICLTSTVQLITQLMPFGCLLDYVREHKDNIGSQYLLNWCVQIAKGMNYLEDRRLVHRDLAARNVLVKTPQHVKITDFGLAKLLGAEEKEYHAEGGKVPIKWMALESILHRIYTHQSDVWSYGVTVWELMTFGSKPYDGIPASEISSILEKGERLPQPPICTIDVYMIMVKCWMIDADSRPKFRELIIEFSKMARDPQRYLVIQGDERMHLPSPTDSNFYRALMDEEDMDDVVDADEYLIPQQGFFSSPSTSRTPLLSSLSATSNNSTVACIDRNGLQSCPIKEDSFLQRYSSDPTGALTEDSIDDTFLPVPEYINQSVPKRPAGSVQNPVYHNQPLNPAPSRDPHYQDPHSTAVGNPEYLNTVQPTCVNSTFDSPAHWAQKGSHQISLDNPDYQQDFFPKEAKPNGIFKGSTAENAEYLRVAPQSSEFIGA

Mus musculus [5] = assay: (§1) Inhibition of LPS-induced TNF-alpha release in mice at 20 mg/kg; type: functional
[6] = molecular target: Mitogen-activated protein kinase 11 (Homo sapiens, UniProt Q15759); assay: Inhibition of human p38 beta MAP kinase
Chain of Mitogen-activated protein kinase 11 (Q15759 whole entry): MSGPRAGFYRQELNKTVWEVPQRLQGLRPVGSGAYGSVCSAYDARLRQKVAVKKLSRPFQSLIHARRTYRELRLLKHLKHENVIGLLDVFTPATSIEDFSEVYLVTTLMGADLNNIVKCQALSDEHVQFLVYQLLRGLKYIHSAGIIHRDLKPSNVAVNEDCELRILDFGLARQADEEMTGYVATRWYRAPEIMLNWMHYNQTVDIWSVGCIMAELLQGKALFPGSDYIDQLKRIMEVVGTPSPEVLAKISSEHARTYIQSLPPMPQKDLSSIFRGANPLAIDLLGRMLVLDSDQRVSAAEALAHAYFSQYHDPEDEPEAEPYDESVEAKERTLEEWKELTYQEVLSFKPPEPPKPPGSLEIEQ

[7] = molecular target: Tyrosine-protein kinase ABL1 (Mus musculus, UniProt P00520); assay: Inhibition of c-abl kinase
Chain of Tyrosine-protein kinase ABL1 (P00520 whole entry): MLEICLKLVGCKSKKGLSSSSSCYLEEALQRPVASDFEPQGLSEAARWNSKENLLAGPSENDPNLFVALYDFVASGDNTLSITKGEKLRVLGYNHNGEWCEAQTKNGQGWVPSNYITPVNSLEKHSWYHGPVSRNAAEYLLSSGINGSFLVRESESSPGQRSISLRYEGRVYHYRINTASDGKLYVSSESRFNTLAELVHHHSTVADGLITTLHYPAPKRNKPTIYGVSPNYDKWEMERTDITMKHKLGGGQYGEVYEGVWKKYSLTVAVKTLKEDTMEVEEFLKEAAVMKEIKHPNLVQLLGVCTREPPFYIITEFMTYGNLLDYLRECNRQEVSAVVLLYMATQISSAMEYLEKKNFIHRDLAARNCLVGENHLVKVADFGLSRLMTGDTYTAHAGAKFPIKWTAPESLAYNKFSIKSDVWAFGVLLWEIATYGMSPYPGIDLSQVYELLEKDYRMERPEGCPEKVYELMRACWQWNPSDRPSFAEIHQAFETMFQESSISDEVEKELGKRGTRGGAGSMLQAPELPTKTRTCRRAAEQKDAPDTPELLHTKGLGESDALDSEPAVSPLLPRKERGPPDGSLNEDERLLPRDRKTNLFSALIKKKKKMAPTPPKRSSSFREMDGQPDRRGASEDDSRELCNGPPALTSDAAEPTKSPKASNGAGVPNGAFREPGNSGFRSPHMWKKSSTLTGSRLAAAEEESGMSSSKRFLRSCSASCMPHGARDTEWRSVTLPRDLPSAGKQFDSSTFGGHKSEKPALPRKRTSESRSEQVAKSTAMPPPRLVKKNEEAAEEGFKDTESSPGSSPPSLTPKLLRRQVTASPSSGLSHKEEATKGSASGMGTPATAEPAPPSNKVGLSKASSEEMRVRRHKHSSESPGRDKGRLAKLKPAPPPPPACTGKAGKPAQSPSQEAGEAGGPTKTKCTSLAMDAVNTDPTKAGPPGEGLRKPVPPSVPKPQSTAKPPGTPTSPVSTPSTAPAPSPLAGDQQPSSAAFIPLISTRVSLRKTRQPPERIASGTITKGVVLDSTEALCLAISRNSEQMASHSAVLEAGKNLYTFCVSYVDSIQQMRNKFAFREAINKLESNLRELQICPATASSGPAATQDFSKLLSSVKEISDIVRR

[8] = molecular target: T3, Mitogen-activated protein kinase 13 (Homo sapiens, UniProt O15264); assay: Inhibition of human p38 delta MAP kinase
T3 sequence (O15264 whole entry): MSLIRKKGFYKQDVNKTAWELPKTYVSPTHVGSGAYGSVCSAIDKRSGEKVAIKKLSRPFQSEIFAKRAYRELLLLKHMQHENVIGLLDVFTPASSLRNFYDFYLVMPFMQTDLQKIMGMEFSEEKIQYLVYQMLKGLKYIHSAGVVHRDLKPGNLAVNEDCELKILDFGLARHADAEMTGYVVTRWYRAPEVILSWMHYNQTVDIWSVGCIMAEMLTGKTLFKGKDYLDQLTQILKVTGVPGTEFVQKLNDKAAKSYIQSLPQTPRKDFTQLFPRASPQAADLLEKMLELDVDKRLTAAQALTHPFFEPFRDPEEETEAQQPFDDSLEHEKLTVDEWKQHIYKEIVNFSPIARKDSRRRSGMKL

Rattus norvegicus [9] = assay: Effect on collagen induced arthritis in rats at 25 mg/kg peroral dose twice daily over 10 days; type: functional; conditions: route oral
[10] = Cmax value at a oral dose of […] mg/kg; type: ADME, organism-based; conditions: in vivo, 20 mg/kg
[11] = molecular target: Proto-oncogene tyrosine-protein kinase Src (Gallus gallus, UniProt P00523); assay: Inhibition of c-src kinase
[12] = molecular target: Protein kinase C alpha type (Bos taurus, UniProt P04409); assay: Inhibition of PKCalpha kinase
[13] = Bioavailability; type: ADME, organism-based; conditions: eutheria, in vivo
[14] = molecular target: Mitogen-activated protein kinase 1 (Mus musculus, UniProt P63085); assay: Inhibition of ERK2 kinase
Chain of Mitogen-activated protein kinase 1 (P63085 whole entry): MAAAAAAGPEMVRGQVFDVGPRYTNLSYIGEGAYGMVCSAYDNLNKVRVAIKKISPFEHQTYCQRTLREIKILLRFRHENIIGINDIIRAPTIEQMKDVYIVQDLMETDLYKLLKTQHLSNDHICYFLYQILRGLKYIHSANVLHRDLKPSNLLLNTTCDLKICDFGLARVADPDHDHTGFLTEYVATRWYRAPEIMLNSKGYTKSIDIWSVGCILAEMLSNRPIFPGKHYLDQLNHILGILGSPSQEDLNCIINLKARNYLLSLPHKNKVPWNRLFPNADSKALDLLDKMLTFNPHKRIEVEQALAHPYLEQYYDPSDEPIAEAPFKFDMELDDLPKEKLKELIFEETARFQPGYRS

Mus musculus [15] = assay: as §1; type: functional, organism-based; set-up: dose 20 mg/kg
[16] = molecular target: Mitogen-activated protein kinase 9 (Homo sapiens, UniProt P45984); assay: Inhibition of JNK2 kinase
Chain of Mitogen-activated protein kinase 9 (P45984 whole entry): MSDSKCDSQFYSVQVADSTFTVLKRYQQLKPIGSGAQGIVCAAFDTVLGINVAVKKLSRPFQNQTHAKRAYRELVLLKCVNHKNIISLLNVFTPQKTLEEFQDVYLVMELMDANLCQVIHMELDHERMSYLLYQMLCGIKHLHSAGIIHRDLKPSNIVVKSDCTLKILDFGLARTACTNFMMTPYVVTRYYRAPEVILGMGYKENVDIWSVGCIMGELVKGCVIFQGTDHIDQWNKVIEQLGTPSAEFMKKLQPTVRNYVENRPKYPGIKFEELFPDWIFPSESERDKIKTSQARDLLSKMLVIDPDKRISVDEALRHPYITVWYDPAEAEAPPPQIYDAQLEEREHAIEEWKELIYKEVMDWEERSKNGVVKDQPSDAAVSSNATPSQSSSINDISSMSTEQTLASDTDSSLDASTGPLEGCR

[17] = molecular target: Mitogen-activated protein kinase 8 (Homo sapiens, UniProt P45983); assay: Inhibition of JNK1 kinase
Chain of Mitogen-activated protein kinase 8 (P45983 whole entry): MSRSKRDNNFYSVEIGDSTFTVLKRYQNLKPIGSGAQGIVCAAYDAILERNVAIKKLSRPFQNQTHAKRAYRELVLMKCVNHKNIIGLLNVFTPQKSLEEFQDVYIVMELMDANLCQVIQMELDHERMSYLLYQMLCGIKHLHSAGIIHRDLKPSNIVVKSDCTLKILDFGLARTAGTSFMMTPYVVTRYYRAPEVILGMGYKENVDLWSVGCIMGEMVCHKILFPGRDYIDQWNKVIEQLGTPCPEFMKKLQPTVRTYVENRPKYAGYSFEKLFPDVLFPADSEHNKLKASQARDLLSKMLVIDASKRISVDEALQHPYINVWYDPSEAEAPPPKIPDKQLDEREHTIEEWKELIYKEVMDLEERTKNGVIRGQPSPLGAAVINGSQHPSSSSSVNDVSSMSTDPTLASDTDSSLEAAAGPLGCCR

Rattus norvegicus [18] = assay: Effect on adjuvant induced arthritis in rats at 25 mg/kg peroral dose twice daily over 10 days; type: functional; conditions: 240 h, route oral

Compound | IC50 [1] [µM] | IC50 [2] [µM] | inhibition in vivo at 20 mg/kg (Mus musculus [5]) [%] | IC50 (Mus musculus [15]) [µM] | further results
OC1(c2nc(-c3ccncc3)c(-c3ccc(F)cc3)[nH]2)CCC1 | 20 | 0.15 | – | – | –
CC(C)(O)c1nc(-c2ccncc2)c(-c2ccc(F)cc2)[nH]1 | 87 | 0.47 | – | – | –
OC1(c2nc(-c3ccncc3)c(-c3ccc(F)cc3)[nH]2)CC1 | 40 | 0.02 | – | – | –
CN1CCC(O)(c2nc(-c3ccc(F)cc3)c(-c3ccncc3)o2)CC1 | > 100 | 0.35 | 50 | 0.18 | IC50 [3]: > 100 µM; IC50 [4]: 0.797 µM; IC50 [6]: 2.41 µM; IC50 [7]: 86.8 µM; IC50 [8]: > 10 µM; ED50 (Rattus norvegicus [9]): 20 mg/kg/day; Cmax [10]: 1.96 µM; IC50 [11]: 22.7 µM; IC50 [12]: 51.1 µM; bioavailability [13]: 65%; IC50 [14]: > 10 µM; IC50 [16]: 8.09 µM; IC50 [17]: > 10 µM; inhibition in vivo at 25 mg/kg (Rattus norvegicus [18]): 40%
OC1(c2nc(-c3ccncc3)c(-c3ccc(F)cc3)[nH]2)CCCC1 | 3 | 0.08 | – | – | –
OC1(c2nc(-c3ccncc3)c(-c3ccc(F)cc3)[nH]2)CCCCC1 | 6.3 | 0.12 | – | – | –
OC1(c2nc(-c3ccncc3)c(-c3ccc(F)cc3)[nH]2)CCCCCC1 | 0.2 | 0.076 | – | – | –
CC(C)(C)c1nc(-c2ccncc2)c(-c2ccccc2)[nH]1 | 5 | 0.45 | – | – | –
CN1CCC(O)(c2nc(-c3ccncc3)c(-c3ccc(F)cc3)o2)CC1 | – | 2 | – | – | –
CN1CCC(O)(c2nc(-c3ccc(F)cc3)c(-c3ccncc3)s2)CC1 | 73 | 0.45 | 0 | 0.145 | –
CN1CCC(O)(c2nc(-c3ccc(F)cc3)c(-c3ccncc3)[nH]2)CC1 | > 100 | 0.09 | 77 | 0.015 | Cmax [10]: 0.4 µM; bioavailability [13]: 23%; inhibition in vivo at 25 mg/kg (Rattus norvegicus [18]): 23%
CN1CCC(O)(c2cc(-c3ccncc3)c(-c3ccc(F)cc3)[nH]2)CC1 | > 100 | 0.13 | 18 | 0.125 | –
